What was measured:
[1] = phospholipid alone, not complexed with 22A; cited from earlier work
SARS-CoV = conditions: via reduced or relocated ACE-2 receptors; cited from earlier work
endotoxemia rats = conditions: cited from earlier work
[2] = test system: endotoxemia mice (5 mg/kg LPS); conditions: 100 mg/kg; cited from earlier work
[3] = test system: NF-κB reporter, human TLR4 (HEK-Blue cells); test: LPS-induced NF-κB expression in HEK-Blue cells (Example X); type: cell-based; conditions: 0.1 mg/ml, LPS 2 ng/ml, 18 h
Description: FIG. 29A-I: sHDL complexes inhibit LPS-induced NF-κB activation in a lipid component and concentration dependent. HEK-Blue system was used to analyze neutralization of the LPS-induced inflammatory response. HEK-Blue cells were co-stimulated with 0.01, 0.03, and 0.1 mg/ml sHDL and 2 ng/ml LPS and incubated for 18 h. The activation of NF-κB reporter was quantified by measuring absorption at 650 nm (A-H). sHDL at 0.03 mg/ml were treated in presence of 2 ng/ml LPS and the activation of NF-κB reporter was quantified by measuring absorption at 650 nm (I).
The HEK-Blue cell system (InvivoGen) was used to analyze neutralization of the LPS-induced inflammatory response. HEK-Blue cells stably express reporter-linked human TLR4, CD14, MD2, and a NF-κB and are designed for studying the stimulation of human TLR4. Briefly, HEK-Blue cells were cultured in Dulbecco's Modified Eagle's Medium (DMEM) containing 10% low endotoxin fetal bovine serum (FBS) and selective antibiotics according to the manufacturer's instructions (InvivoGen). Growth medium was discarded and cells were resuspended in HEK-Blue Detection medium. Cells were seeded at 25,000 cells per well. The cells were treated with sHDL at 0.01, 0.03, or 0.1 mg/ml and 2 ng/ml of LPS. […] The blue color was quantified by measuring absorption at 650 nm using a SpectraMax M3 plate reader (Molecular Devices, Sunnyvale, CA).

[4] = Diameter of 22A-phospholipid sHDL complexes by DLS; type: physicochemical; conditions: volume intensity average
Description: The quality of resulting sHDL complexes were analyzed by following analytical techniques. The purity of sHDL complexes were determined by gel permeation chromatography (GPC), with UV detection at 220 nm, using a Tosoh TSK gel G3000SWxl column (Tosoh Bioscience, King of Prussia, PA). The sHDL diameters were determined by dynamic light scattering (DLS), using a Zetasizer Nano ZSP (Malvern Instruments, Westborough, MA) and the volume intensity average values were reported. Transition temperature of sHDL complexes were analyzed by differential scanning calorimetry (DSC) using Nano DSC (TA Instruments, New Castle, DE).

## CCCCCCCCCCCCCCCCCC(=O)OC[C@H](COP(=O)([O-])OCC[N+](C)(C)C)OC(=O)CCCCCCCCCCCCCCCCC [DSPC, 1,2-distearoyl-sn-glycero-3-phosphatidylcholine]
[1]
  Tm of phospholipid: 54.5 °C

## CCCCCCCC/C=C\CCCCCCCC(=O)O[C@H](COC(=O)CCCCCCCCCCCCCCC)COP(=O)([O-])OCC[N+](C)(C)C [POPC, 1-palmitoyl-2-oleoyl-phosphatidylcholine]
[1]
  Tm of phospholipid: −3.3±0.5 °C

## methyl-β-cyclodextrin [MβCD]
SARS-CoV
  SARS-CoV cell entry: inhibited

## CCCCCCCCCCCCCCCC(=O)OC[C@H](COP(=O)([O-])OCC[N+](C)(C)C)OC(=O)CCCCCCCCCCCCCCC [DPPC, 1,2-dipalmitoyl-sn-glycero-3-phosphatidylcholine]
[1]
  Tm of phospholipid: 41.6 °C

## apoA-I: apolipoprotein A-I
Endotoxemia rats; 10 mg/kg 2 h post-LPS injection (1 mg/kg LPS)
  plasma TNF-α: reduce
Endotoxemia rats; 10 mg/kg, endotoxemia rats (5 mg/kg)
  survival rate: increased
[2]
  mortality: significantly lowered

## PVLDLFRELLNELLEALKQKLK (SEQ ID NO: 4) [22A peptide]
[3]
  activation of NF-kB: suppressed
[4]
  Size (nm): 4.49 nm
[4]; listed as 22A PEPTIDE
  Size (nm): 4.488 nm

## CCCCCCCCCCCCCC(=O)OC[C@H](COP(=O)([O-])OCC[N+](C)(C)C)OC(=O)CCCCCCCCCCCCC [DMPC, 1,2-dimyristoyl-sn-glycero-3-phosphatidylcholine]
[1]
  Tm of phospholipid: 24.5 °C

From patent US20240050522A1, “COMPOSITIONS AND METHODS FOR PREVENTING, ATTENUATING, AND TREATING MEDICAL CONDITIONS WITH sHDL NANOPARTICLES” (The Regents of the University of Michigan, priority 2020, published 2024)
